Reference: PubChem BioAssay AID2060901 (Molecular Pharmacology Branch, DTP, NCI, 2025)

System: 422866-222-R5-J1-PDC complex spheroids viability
Assay: Anticancer human tumor 422866-222-R5-J1-PDC patient-derived pancreatic adenocarcinoma cell line growth inhibition [RAS]
Conditions: for IC50: curve of first compound; for viability, T/C: stronger effect = lower value
How it was run: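 Agents were tested in combination matrices in half-log decrements from a top concentration at or near clinical Cmax (10 microM if undetermined). Targets were multi-cell spheroids of tumour lines plus HUVEC and MSC stromal cells.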

[1] = second compound 0.0316 µM, first compound 0.000316 µM
[2] = second compound 0.0316 µM, first compound 0.001 µM
[3] = second compound 0.0316 µM, first compound 0.00316 µM
[4] = second compound 0.0316 µM, first compound 0.01 µM
[5] = second compound 0.0316 µM, first compound 0.0316 µM
[6] = second compound 0.0316 µM, first compound 0.1 µM
[7] = second compound 0.1 µM, first compound 0.000316 µM
[8] = second compound 0.1 µM, first compound 0.001 µM
[9] = second compound 0.1 µM, first compound 0.00316 µM
[10] = second compound 0.1 µM, first compound 0.01 µM
[11] = second compound 0.1 µM, first compound 0.0316 µM
[12] = second compound 0.1 µM, first compound 0.1 µM
[13] = second compound 0.316 µM, first compound 0.000316 µM
[14] = second compound 0.316 µM, first compound 0.001 µM
[15] = second compound 0.316 µM, first compound 0.00316 µM
[16] = second compound 0.316 µM, first compound 0.01 µM
[17] = second compound 0.316 µM, first compound 0.0316 µM
[18] = second compound 0.316 µM, first compound 0.1 µM
[19] = second compound 1 µM, first compound 0.000316 µM
[20] = second compound 1 µM, first compound 0.001 µM
[21] = second compound 1 µM, first compound 0.00316 µM
[22] = second compound 1 µM, first compound 0.01 µM
[23] = second compound 1 µM, first compound 0.0316 µM
[24] = second compound 1 µM, first compound 0.1 µM
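Also: spheroids exposed to compounds for 7 days.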
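For viability, T/C in this document: 100% = DMSO vehicle control viability.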

## CC(C)n1nc(-c2ccc3oc(N)nc3c2)c2c(N)ncnc21 + C=CC(=O)N1CCN(c2nc(OCC3CCCN3C)nc3c(F)c(-c4nc(N)cc(C)c4C(F)(F)F)c(Cl)cc23)C(C)C1
Second compound 0.00316 µM
  IC50: < 0.316 nM
Second compound 0.01 µM
  IC50: < 0.316 nM
Second compound 0.0316 µM
  IC50: < 0.316 nM
Second compound 0.1 µM
  IC50: < 0.316 nM
Second compound 0.316 µM
  IC50: < 0.316 nM
Second compound 1 µM
  IC50: < 0.316 nM
Second compound 0.00316 µM, first compound 0.000316 µM
  viability, T/C: 34.9%
Second compound 0.00316 µM, first compound 0.001 µM
  viability, T/C: 35.1%
Second compound 0.00316 µM, first compound 0.00316 µM
  viability, T/C: 30.5%
Second compound 0.00316 µM, first compound 0.01 µM
  viability, T/C: 23.2%
Second compound 0.00316 µM, first compound 0.0316 µM
  viability, T/C: 18.3%
Second compound 0.00316 µM, first compound 0.1 µM
  viability, T/C: 14.8%
Second compound 0.01 µM, first compound 0.000316 µM
  viability, T/C: 30.3%
Second compound 0.01 µM, first compound 0.001 µM
  viability, T/C: 28.9%
Second compound 0.01 µM, first compound 0.00316 µM
  viability, T/C: 22.9%
Second compound 0.01 µM, first compound 0.01 µM
  viability, T/C: 19.9%
Second compound 0.01 µM, first compound 0.0316 µM
  viability, T/C: 14.3%
Second compound 0.01 µM, first compound 0.1 µM
  viability, T/C: 14.1%
[1]
  viability, T/C: 29.9%
[2]
  viability, T/C: 26.5%
[3]
  viability, T/C: 23.4%
[4]
  viability, T/C: 18.2%
[5]
  viability, T/C: 14%
[6]
  viability, T/C: 12.3%
[7]
  viability, T/C: 25.5%
[8]
  viability, T/C: 22.9%
[9]
  viability, T/C: 18.1%
[10]
  viability, T/C: 18.3%
[11]
  viability, T/C: 16.8%
[12]
  viability, T/C: 11.3%
[13]
  viability, T/C: 25%
[14]
  viability, T/C: 20.9%
[15]
  viability, T/C: 20.6%
[16]
  viability, T/C: 18.1%
[17]
  viability, T/C: 13.6%
[18]
  viability, T/C: 10.5%
[19]
  viability, T/C: 21.3%
[20]
  viability, T/C: 20.2%
[21]
  viability, T/C: 24.6%
[22]
  viability, T/C: 17.2%
[23]
  viability, T/C: 17.3%
[24]
  viability, T/C: 13.8%

## CC(C)n1nc(-c2ccc3oc(N)nc3c2)c2c(N)ncnc21 + C#Cc1c(F)ccc2cc(O)cc(-c3ncc4c(N5CC6CCC(C5)N6)nc(OCC56CCCN5CC(F)C6)nc4c3F)c12
Second compound 0.0316 µM
  IC50: > 100 nM
Second compound 0.1 µM
  IC50: > 100 nM
Second compound 0.316 µM
  IC50: > 100 nM
Second compound 1 µM
  IC50: < 0.316 nM
Second compound 3.16 µM
  IC50: < 0.316 nM
Second compound 10 µM
  IC50: < 0.316 nM
[1]
  viability, T/C: 90.6%
[2]
  viability, T/C: 104%
[3]
  viability, T/C: 73.3%
[4]
  viability, T/C: 54.9%
[5]
  viability, T/C: 77.6%
[6]
  viability, T/C: 68.4%
[7]
  viability, T/C: 62.5%
[8]
  viability, T/C: 75.1%
[9]
  viability, T/C: 65.4%
[10]
  viability, T/C: 54.6%
[11]
  viability, T/C: 80%
[12]
  viability, T/C: 56.8%
[13]
  viability, T/C: 66.4%
[14]
  viability, T/C: 62.1%
[15]
  viability, T/C: 60%
[16]
  viability, T/C: 49.7%
[17]
  viability, T/C: 58.6%
[18]
  viability, T/C: 61.7%
[19]
  viability, T/C: 42.5%
[20]
  viability, T/C: 37.9%
[21]
  viability, T/C: 28.2%
[22]
  viability, T/C: 26.7%
[23]
  viability, T/C: 44%
[24]
  viability, T/C: 48.5%
Second compound 3.16 µM, first compound 0.000316 µM
  viability, T/C: 31.5%
Second compound 3.16 µM, first compound 0.001 µM
  viability, T/C: 26%
Second compound 3.16 µM, first compound 0.00316 µM
  viability, T/C: 25.8%
Second compound 3.16 µM, first compound 0.01 µM
  viability, T/C: 19.8%
Second compound 3.16 µM, first compound 0.0316 µM
  viability, T/C: 20.9%
Second compound 3.16 µM, first compound 0.1 µM
  viability, T/C: 19.3%
Second compound 10 µM, first compound 0.000316 µM
  viability, T/C: 18.8%
Second compound 10 µM, first compound 0.001 µM
  viability, T/C: 21.7%
Second compound 10 µM, first compound 0.00316 µM
  viability, T/C: 17.4%
Second compound 10 µM, first compound 0.01 µM
  viability, T/C: 15.2%
Second compound 10 µM, first compound 0.0316 µM
  viability, T/C: 18.1%
Second compound 10 µM, first compound 0.1 µM
  viability, T/C: 15.1%

## O=C(c1ccc(F)c(F)c1Nc1ccc(I)cc1F)N1CC(O)([C@@H]2CCCCN2)C1 + CCn1c(-c2cc(N3CCN(C)CC3)cnc2C(C)OC)c2c3cc(ccc31)-c1csc(n1)CC(NC(=O)C1CC1C)C(=O)N1CCCC(N1)C(=O)OCC(C)(C)C2
Second compound 0.000949 µM
  IC50: < 3.16 nM
Second compound 0.003 µM
  IC50: < 3.16 nM
Second compound 0.00949 µM
  IC50: < 3.16 nM
Second compound 0.03 µM
  IC50: < 3.16 nM
Second compound 0.0949 µM
  IC50: < 3.16 nM
Second compound 0.3 µM
  IC50: < 3.16 nM
Second compound 0.000949 µM, first compound 0.00316 µM
  viability, T/C: 30.9%
Second compound 0.000949 µM, first compound 0.01 µM
  viability, T/C: 27.3%
Second compound 0.000949 µM, first compound 0.0316 µM
  viability, T/C: 21.8%
Second compound 0.000949 µM, first compound 0.1 µM
  viability, T/C: 20.4%
Second compound 0.000949 µM, first compound 0.316 µM
  viability, T/C: 15%
Second compound 0.000949 µM, first compound 1 µM
  viability, T/C: 14.4%
Second compound 0.003 µM, first compound 0.00316 µM
  viability, T/C: 22.9%
Second compound 0.003 µM, first compound 0.01 µM
  viability, T/C: 19.1%
Second compound 0.003 µM, first compound 0.0316 µM
  viability, T/C: 16.2%
Second compound 0.003 µM, first compound 0.1 µM
  viability, T/C: 13.3%
Second compound 0.003 µM, first compound 0.316 µM
  viability, T/C: 13.4%
Second compound 0.003 µM, first compound 1 µM
  viability, T/C: 15.1%
Second compound 0.00949 µM, first compound 0.00316 µM
  viability, T/C: 16%
Second compound 0.00949 µM, first compound 0.01 µM
  viability, T/C: 14.8%
Second compound 0.00949 µM, first compound 0.0316 µM
  viability, T/C: 14.5%
Second compound 0.00949 µM, first compound 0.1 µM
  viability, T/C: 11.9%
Second compound 0.00949 µM, first compound 0.316 µM
  viability, T/C: 11.9%
Second compound 0.00949 µM, first compound 1 µM
  viability, T/C: 13.6%
Second compound 0.03 µM, first compound 0.00316 µM
  viability, T/C: 14.3%
Second compound 0.03 µM, first compound 0.01 µM
  viability, T/C: 13.4%
Second compound 0.03 µM, first compound 0.0316 µM
  viability, T/C: 13.2%
Second compound 0.03 µM, first compound 0.1 µM
  viability, T/C: 13.8%
Second compound 0.03 µM, first compound 0.316 µM
  viability, T/C: 13.9%
Second compound 0.03 µM, first compound 1 µM
  viability, T/C: 14.9%
Second compound 0.0949 µM, first compound 0.00316 µM
  viability, T/C: 15.2%
Second compound 0.0949 µM, first compound 0.01 µM
  viability, T/C: 16%
Second compound 0.0949 µM, first compound 0.0316 µM
  viability, T/C: 13.4%
Second compound 0.0949 µM, first compound 0.1 µM
  viability, T/C: 13.8%
Second compound 0.0949 µM, first compound 0.316 µM
  viability, T/C: 14.5%
Second compound 0.0949 µM, first compound 1 µM
  viability, T/C: 15.3%
Second compound 0.3 µM, first compound 0.00316 µM
  viability, T/C: 16.7%
Second compound 0.3 µM, first compound 0.01 µM
  viability, T/C: 14.9%
Second compound 0.3 µM, first compound 0.0316 µM
  viability, T/C: 15%
Second compound 0.3 µM, first compound 0.1 µM
  viability, T/C: 15.1%
Second compound 0.3 µM, first compound 0.316 µM
  viability, T/C: 15.7%
Second compound 0.3 µM, first compound 1 µM
  viability, T/C: 15.6%
